Experimental data from PubChem BioAssay AID330 (DTP/NCI, 2004).
Where “and” joins values, the source holds several entries; their conditions need not be identical. Equal values may be shown once. Toxic doses and inconclusive results are not listed. How the source made its calls: active means survival T/C of 150% or more; inactive means T/C below 125% in these data.

Test system: P388 leukemia ip, CD2F1 mice, survival T/C
Experiment: NCI In Vivo Anticancer Drug Screen. Data for tumor model P388 Leukemia (intraperitoneal) in CD2F1 (CDF1) mice
Settings: endpoint: median survival time, higher = longer survival
Procedure, shortened: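 Mice carrying the transplanted tumor received test compound or vehicle. Survival was recorded in each group, and the value is the treated-group measurement divided by that of the vehicle-treated control group.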

[1] = dose: 12.5 mg/kg/injection, schedule: Q01DX009 (ip), vehicle: Klucel (hydroxypropylcellulose) (HPC)
[2] = dose: 25.0 mg/kg/injection, schedule: Q01DX009 (ip), vehicle: Klucel (hydroxypropylcellulose) (HPC)
[3] = dose: 50.0 mg/kg/injection, schedule: Q01DX009 (ip), vehicle: Klucel (hydroxypropylcellulose) (HPC)
[4] = dose: 50.0 mg/kg/injection, schedule: Q01DX005 (ip), vehicle: Klucel (hydroxypropylcellulose) (HPC)
[5] = dose: 100.0 mg/kg/injection, schedule: Q01DX005 (ip), vehicle: Klucel (hydroxypropylcellulose) (HPC)
[6] = dose: 200.0 mg/kg/injection, schedule: Q01DX005 (ip), vehicle: Klucel (hydroxypropylcellulose) (HPC)
[7] = dose: 50.0 mg/kg/injection, schedule: Q01DX009 (ip), vehicle: saline with Tween-80
[8] = dose: 100.0 mg/kg/injection, schedule: Q01DX009 (ip), vehicle: saline with Tween-80
[9] = dose: 200.0 mg/kg/injection, schedule: Q01DX009 (ip), vehicle: saline with Tween-80
[10] = dose: 25.0 mg/kg/injection, schedule: Q01DX005 (ip), vehicle: Klucel (hydroxypropylcellulose) (HPC)
[11] = dose: 50.0 mg/kg/injection, schedule: Q01DX009 (ip), vehicle: saline
[12] = dose: 50.0 mg/kg/injection, schedule: Q01DX005 (ip), vehicle: saline with Tween-80
[13] = dose: 100.0 mg/kg/injection, schedule: Q01DX005 (ip), vehicle: saline with Tween-80
[14] = dose: 200.0 mg/kg/injection, schedule: Q01DX005 (ip), vehicle: saline with Tween-80

Measured: T/C

C#CC(C)(CC(C)C)OCCN(CC)CC (stereo unspecified)
inactive: dose: 6.25 mg/kg/injection, schedule: Q01DX005 (ip), vehicle: saline with Tween-80 106 % of control | dose: 12.5 mg/kg/injection, schedule: Q01DX005 (ip), vehicle: saline with Tween-80 104 % of control | dose: 25.0 mg/kg/injection, schedule: Q01DX005 (ip), vehicle: saline with Tween-80 104 % of control

CC(C)(C)n1nnnc1N
inactive: [1] 100 % of control | [2] 94 % of control | [3] 105 % of control and 112 % of control | dose: 200.0 mg/kg/injection, schedule: Q01DX009 (ip), vehicle: Klucel (hydroxypropylcellulose) (HPC) 103 % of control

CC1(C)CC(NCCO)=CC(=S)N1
inactive: [4] 103 % of control | [5] 101 % of control | [6] 99 % of control

CN(C)[C@@H]1C(=O)C(C(=O)NCNC2CC(C)(C)N(O)C(C)(C)C2)=C(O)C2(O)C(=O)C3=C(O)c4c(O)cccc4[C@@](C)(O)C3CC12 (stereo partly specified)
inactive: dose: 100.0 mg/kg/injection, schedule: Q01DX001 (ip), vehicle: saline 105 % of control | dose: 200.0 mg/kg/injection, schedule: Q01DX001 (ip), vehicle: saline 89 % of control | dose: 400.0 mg/kg/injection, schedule: Q01DX001 (ip), vehicle: saline 91 % of control

CCCCC(C)C(=O)/C=C/c1ccc(Cl)c(Cl)c1 (stereo unspecified)
inactive: [7] 105 % of control | [8] 100 % of control | [9] 106 % of control

CCOC(=O)CN=NNc1ccccc1C(=O)CC
inactive: dose: 100.0 mg/kg/injection, schedule: Q01DX001 (ip), vehicle: Klucel (hydroxypropylcellulose) (HPC) 98 % of control | dose: 200.0 mg/kg/injection, schedule: Q01DX001 (ip), vehicle: Klucel (hydroxypropylcellulose) (HPC) 100 % of control | dose: 400.0 mg/kg/injection, schedule: Q01DX001 (ip), vehicle: Klucel (hydroxypropylcellulose) (HPC) 100 % of control

COc1cccc(C2c3cc4c(cc3OC(N3CCCC3)C2C)OCO4)c1O (stereo unspecified)
inactive: dose: 60.0 mg/kg/injection, schedule: Q01DX005 (ip), vehicle: saline with Tween-80 103 % of control | dose: 120.0 mg/kg/injection, schedule: Q01DX005 (ip), vehicle: saline with Tween-80 90 % of control | dose: 240.0 mg/kg/injection, schedule: Q01DX005 (ip), vehicle: saline with Tween-80 88 % of control

CCCCNC(=O)CC(=O)NCCCC
inactive: [10] 99 % of control | [4] 100 % of control | [5] 99 % of control | [6] 100 % of control

O=C(Nc1ccccc1)OCC1CC1
inactive: [7] 99 % of control | [8] 115 % of control | [9] 96 % of control | dose: 400.0 mg/kg/injection, schedule: Q01DX009 (ip), vehicle: saline with Tween-80 89 % of control

COC(=O)/C(=C1/OC(=O)C(c2ccccc2)=C1O)c1ccccc1
inactive: dose: 6.25 mg/kg/injection, schedule: Q01DX009 (ip), vehicle: Klucel (hydroxypropylcellulose) (HPC) 99 % of control | [1] 94 % of control | [2] 99 % of control | [3] 93 % of control | [11] 95 % of control

COc1ccc(C2NC(C(=O)O)CS2)cc1OC (stereo unspecified)
inactive: dose: 50.0 mg/kg/injection, schedule: Q01DX009 (ip), vehicle: suspension in saline 95 % of control | dose: 100.0 mg/kg/injection, schedule: Q01DX009 (ip), vehicle: suspension in saline 95 % of control | dose: 200.0 mg/kg/injection, schedule: Q01DX009 (ip), vehicle: suspension in saline 87 % of control and 97 % of control

COP1(=O)CC(=O)C(C)(C)N1C (stereo unspecified)
inactive: [4] 101 % of control | [5] 107 % of control | [6] 111 % of control

CCc1cccc(C)c1NC(=O)C(=O)CC(=O)c1ccccc1Cl
inactive: dose: 50.0 mg/kg/injection, schedule: Q01DX005 (ip), vehicle: saline 103 % of control | dose: 100.0 mg/kg/injection, schedule: Q01DX005 (ip), vehicle: saline 107 % of control | dose: 200.0 mg/kg/injection, schedule: Q01DX005 (ip), vehicle: saline 103 % of control

CSc1nc(C)nc2sc(CO)nc12
inactive: dose: 100.0 mg/kg/injection, schedule: Q04DX002 (ip), vehicle: suspension in saline 97 % of control | dose: 200.0 mg/kg/injection, schedule: Q04DX002 (ip), vehicle: suspension in saline 97 % of control | dose: 400.0 mg/kg/injection, schedule: Q04DX002 (ip), vehicle: suspension in saline 96 % of control

CCCCCn1[nH]nc(C(=O)OC)c1=O (tested in a mixture with another compound)
inactive: [4] 102 % of control | [5] 95 % of control | [6] 103 % of control

CCCCOC(=O)NCCCl
inactive: [7] 96 % of control | [8] 97 % of control | [9] 102 % of control

CCN=NNc1ccc(C(C)=O)cc1
inactive: dose: 12.5 mg/kg/injection, schedule: Q01DX009 (ip), vehicle: distilled water + Tween-80 95 % of control | dose: 25.0 mg/kg/injection, schedule: Q01DX009 (ip), vehicle: distilled water + Tween-80 109 % of control and 90 % of control | dose: 50.0 mg/kg/injection, schedule: Q01DX009 (ip), vehicle: distilled water + Tween-80 109 % of control and 92 % of control | dose: 100.0 mg/kg/injection, schedule: Q01DX009 (ip), vehicle: distilled water + Tween-80 104 % of control

COc1ccc(CNNc2ccc(NC(C)=O)cc2N)cc1
inactive: dose: 25.0 mg/kg/injection, schedule: Q04DX003 (ip), vehicle: saline with Tween-80 90 % of control | dose: 50.0 mg/kg/injection, schedule: Q04DX003 (ip), vehicle: saline with Tween-80 88 % of control | dose: 100.0 mg/kg/injection, schedule: Q04DX003 (ip), vehicle: saline with Tween-80 105 % of control

C/C=c1/[nH]c(=O)/c(=C\c2ccccc2)[nH]c1=O
inactive: [2] 89 % of control | [3] 91 % of control | dose: 100.0 mg/kg/injection, schedule: Q01DX009 (ip), vehicle: Klucel (hydroxypropylcellulose) (HPC) 89 % of control

CC1CC(C)(C)C(c2ccccc2)C(=O)O1 (stereo unspecified)
inactive: dose: 100.0 mg/kg/injection, schedule: Q04DX003 (ip), vehicle: Klucel (hydroxypropylcellulose) (HPC) 106 % of control | dose: 200.0 mg/kg/injection, schedule: Q04DX003 (ip), vehicle: Klucel (hydroxypropylcellulose) (HPC) 100 % of control | dose: 400.0 mg/kg/injection, schedule: Q04DX003 (ip), vehicle: Klucel (hydroxypropylcellulose) (HPC) 114 % of control

CCOc1ccc(NC(=O)/C(=C\c2ccc(C)cc2)C(C)=O)cc1
inactive: [12] 106 % of control | [13] 110 % of control | [14] 104 % of control

O=c1[nH]c2nc(Cl)nc(Cl)c2[nH]1
inactive: [12] 98 % of control | [13] 94 % of control | [14] 93 % of control

CC1NC(=O)NC(=O)C1(Cl)Cl (stereo unspecified)
inactive: [11] 101 % of control | dose: 100.0 mg/kg/injection, schedule: Q01DX009 (ip), vehicle: saline 99 % of control and 109 % of control | dose: 200.0 mg/kg/injection, schedule: Q01DX009 (ip), vehicle: saline 100 % of control and 109 % of control

O=S(=O)(C1=C[C@H](O)C[C@@H]1O)c1ccccc1
inactive: dose: 60.0 mg/kg/injection, schedule: Q01DX005 (ip), vehicle: Klucel (hydroxypropylcellulose) (HPC) 98 % of control | dose: 120.0 mg/kg/injection, schedule: Q01DX005 (ip), vehicle: Klucel (hydroxypropylcellulose) (HPC) 107 % of control | dose: 240.0 mg/kg/injection, schedule: Q01DX005 (ip), vehicle: Klucel (hydroxypropylcellulose) (HPC) 100 % of control

CC(=O)OC1(C)C(=O)OC/C2=C/CN(C)CCC(OC(=O)C(O)(C(C)Cl)CC1C)C2=O (stereo unspecified)
inactive: dose: 12.5 mg/kg/injection, schedule: Q01DX005 (ip), vehicle: Klucel (hydroxypropylcellulose) (HPC) 103 % of control | [10] 100 % of control | [4] 99 % of control and 103 % of control
